The values that follow come from paper PMC6017299, “Ent-Clerodane Diterpenes from the Bark of Croton oligandrus Pierre ex Hutch. and Assessment of Their Cytotoxicity against Human Cancer Cell Lines” (Molecules : A Journal of Synthetic Chemistry and Natural …, 2018).

Structures are written as SMILES. Where two headings read alike, the source gives them in different places. Bounds are passed on as bounds.

Holding throughout (type): cell-based
Assay [1] has as its system PNT2 (human normal prostate epithelium cell line). The assay is described as follows: MTT cell viability assay, PNT2 cells. The following applies: 0 to 200 µM, 48 h, noncancerous cells, mean ± SEM (n = 3), read-out: IC50 (50% cell growth inhibition) PNT2. As for the experimental part:
(§1) The in vitro activity of the crude extracts, fractions and isolated compounds from C. oligandrus on metabolic cell viability was assessed against A549 (adenocarcinoma human alveolar basal epithelial cell 211 line), MCF7 (human breast adenocarcinoma cell line), PC3 (human prostate cancer cell line) and PNT2 212 (human normal prostate epithelium cell line). The resulting inhibitory activity is termed “cytotoxic activity” throughout the manuscript. The cell lines were grown in RPMI medium supplemented with L-glutamine (2 mM), penicillin (100 U/mL), streptomycin (100 μg/mL) and 10% foetal bovine serum (FBS) and cultured at 37 °C, 5% CO2 and 95% humidity. For experimental use, the cells were seeded into 96-well plates (1.2 × 10^4/well) and incubated for 24 h. Cells were then treated with crude extract (0–250 µg/mL) for 24 h or isolated compounds (0 to 200 µM) for 48 h and the cell viability was measured using the MTT assay. The formazan crystals formed were dissolved in DMSO and optical density was read at 570 nm using a ClarioStar plate reader, Manchester, UK. Three individual wells were assayed per treatment; the assay was repeated three times and cytotoxic activity was determined using the percentage of absorbance compared to the control cells [(absorbance of treated cells/absorbance of untreated cells) × 100]. Doxorubicin was used as the positive control and the IC50 value of each test sample was calculated using the software Graphad Prism 7.02, La Jolla, CA, USA.
For orientation: Tetrazolium dyes change colour on reduction, which living cells bring about.

The test system of assay [2] is PC3 (human prostate cancer cell line). The assay is described as follows: MTT cell viability assay, PC3 cells. The following applies: 0 to 200 µM, 48 h, mean ± SEM (n = 3), read-out: IC50 (50% cell growth inhibition) PC-3. As for the experimental part: as §1
Assay [3] has as its system MCF7 (human breast adenocarcinoma cell line). The assay is described as follows: MTT cell viability assay, MCF7 cells. The following applies: 0 to 200 µM, mean ± SEM (n = 3), read-out: IC50 (50% cell growth inhibition) MCF-7. The method, then: (§2) The resulting inhibitory activity is termed “cytotoxic activity” throughout the manuscript. The cell lines were grown in RPMI medium supplemented with L-glutamine (2 mM), penicillin (100 U/mL), streptomycin (100 μg/mL) and 10% foetal bovine serum (FBS) and cultured at 37 °C, 5% CO2 and 95% humidity. For experimental use, the cells were seeded into 96-well plates (1.2 × 10^4/well) and incubated for 24 h. […] The formazan crystals formed were dissolved in DMSO and optical density was read at 570 nm using a ClarioStar plate reader, Manchester, UK. Three individual wells were assayed per treatment; the assay was repeated three times and cytotoxic activity was determined using the percentage of absorbance compared to the control cells [(absorbance of treated cells/absorbance of untreated cells) × 100].

For assay [4], the system named is A549 (adenocarcinoma human alveolar basal epithelial cell line). The assay is described as follows: MTT cell viability assay, A549 cells. The following applies: 0 to 200 µM, 48 h, mean ± SEM (n = 3), read-out: IC50 (50% cell growth inhibition) A549. As for the experimental part:
as §1

For assay [5], the system named is A549, MCF7, PC3 and PNT2 cell lines. Nature of the assay: MTT cell viability assay, statements across the cell line panel. The following applies: Homo sapiens, positive control, read-out: IC50 range between the cell lines used. The method, then: as §2
The mark [6] stands for this setting: Homo sapiens, PNT2, isolated compounds.
Setting [7] is: Homo sapiens, PC-3, isolated compounds.
Where [8] appears, read: Homo sapiens, MCF7, isolated compounds, 48 h.
[9] abbreviates: Homo sapiens, A549, isolated compounds.

In general, IC50 refers to the concentration that inhibits the measured activity by half. As to `COC(=O)C1=CC(=O)C=C2C1(C(=O)OC)CCC(C)C21CC(c2ccoc2)OC1=O` (centres unmarked) [Compound 1, megalocarpoidolide D], the IC50 in assay [1] (setting [6]) is more than 200 µM; in assay [2] (setting [7]), more than 200 µM; in assay [3] (Homo sapiens, MCF7, 48 h, isolated compounds) it was 136 ± 22.7 µM; in assay [4] (isolated compounds), 63.8 ± 13.8 µM.

For the molecule `COC(=O)C1=CC(=O)C=C2C1(C(=O)OC)CCC(C)C21CC(c2ccoc2)OC1=O` (stereo not drawn) [Compound 2, 12-epi-megalocarpoidolide D], the IC50 is more than 200 µM in assay [1] (isolated compounds); more than 200 µM in assay [2] (isolated compounds); 171 ± 51.4 µM in assay [3] (isolated compounds, 48 h); 139 ± 22.1 µM in assay [4] (isolated compounds).

Regarding `COC(=O)C1=CCCC2C1(C(=O)OC)CCC(C)C21CC(c2ccoc2)OC1=O` (stereo not drawn) [Compound 5, 12-epi-crotocorylifuran], the IC50 is more than 200 µM in assay [1] (setting [6]), more than 200 µM in assay [2] (setting [7]), more than 200 µM in assay [3] (setting [8]) and 107 ± 27.2 µM in assay [4] (setting [9]).

Regarding `COc1cc(C=O)ccc1O` [Compound 8, vanillin], the IC50 in assay [1] (setting [6]), in assay [2] (setting [7]), in assay [3] (setting [8]) and in assay [4] (setting [9]) was more than 200 µM in each case.

For `CC(=O)O[C@H]1CC[C@]2(C)[C@H]3CC[C@]4(C)C(=CC[C@@]5(C(=O)O)CCC(C)(C)C[C@H]54)[C@]3(C)CC[C@H]2C1(C)C` [Compound 9, acetyl-aleuritolic acid], the IC50 in assay [1] (setting [6]) was 168 ± 25.3 µM; in assay [2] (setting [7]), 172 ± 39.7 µM; in assay [3] (setting [8]) it was more than 200 µM; in assay [4] (setting [9]), 137 ± 18.9 µM.

As to `C=C(C)[C@@H]1CC[C@]2(C)CC[C@]3(C)[C@H](CC[C@@H]4[C@@]5(C)CC[C@H](O)C(C)(C)[C@@H]5CC[C@]43C)[C@@H]12` [Compound 10, lupeol], the IC50 in assay [1] (setting [6]) was more than 200 µM; in assay [2] (setting [7]), 136 ± 21.1 µM; in assay [3] (setting [8]), more than 200 µM; in assay [4] (setting [9]) it was more than 200 µM.

On to `COc1cccc2c1C(=O)c1c(O)c3c(c(O)c1C2=O)C[C@@](O)(C(=O)CO)C[C@@H]3O[C@H]1C[C@H](N)[C@H](O)[C@H](C)O1` [Doxorubicin, reference compound], for which the IC50 in assay [1] (setting [6]) was 1.5 ± 0.3 µM; in assay [2] (setting [7]), 16.4 ± 2.9 µM; in assay [3] (setting [8]) it was 0.7 ± 0.1 µM; in assay [4] (setting [9]) it was 1.3 ± 0.3 µM; in assay [5], 0.7 to 16.4 µM.
